Key:
human EHMT2 913-1193 = target: T1, human EHMT2 913-1193 (Homo sapiens, UniProt Q96KQ7); experiment: EHMT2 enzyme assay on histone peptide substrate (EHMT2 PEP); assay type: biochemical; conditions: Table III; read-out: EHMT2 PEP (IC50 μM)
T1 construct: recombinant purified human EHMT2 913-1193, Viva; purchased Viva
T1 sequence (Q96KQ7 913-1193): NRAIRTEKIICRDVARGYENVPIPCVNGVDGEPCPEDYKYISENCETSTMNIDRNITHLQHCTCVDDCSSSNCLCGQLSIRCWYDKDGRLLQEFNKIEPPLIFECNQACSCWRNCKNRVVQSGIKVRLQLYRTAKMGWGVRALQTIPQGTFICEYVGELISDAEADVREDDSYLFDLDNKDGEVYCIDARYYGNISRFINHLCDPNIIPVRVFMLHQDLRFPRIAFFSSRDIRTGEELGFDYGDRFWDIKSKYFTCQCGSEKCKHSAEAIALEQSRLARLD
In short: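 Inhibition is measured as reduced tritium incorporation into a biotinylated histone peptide from ^3H-SAM. The enzyme (0.031 nM) sees compound for 30 minutes before a 60-minute room-temperature reaction, which unlabeled SAM quenches prior to streptavidin Flashplate capture.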

EHMT1 = target: T2, EHMT1 (Homo sapiens, UniProt Q9H9B1); experiment: EHMT1 enzyme assay on peptide substrate (EHMT1 PEP); assay type: biochemical; conditions: Table III; read-out: EHMT1 PEP (IC50 μM)
T2 sequence (Q9H9B1 1-1298): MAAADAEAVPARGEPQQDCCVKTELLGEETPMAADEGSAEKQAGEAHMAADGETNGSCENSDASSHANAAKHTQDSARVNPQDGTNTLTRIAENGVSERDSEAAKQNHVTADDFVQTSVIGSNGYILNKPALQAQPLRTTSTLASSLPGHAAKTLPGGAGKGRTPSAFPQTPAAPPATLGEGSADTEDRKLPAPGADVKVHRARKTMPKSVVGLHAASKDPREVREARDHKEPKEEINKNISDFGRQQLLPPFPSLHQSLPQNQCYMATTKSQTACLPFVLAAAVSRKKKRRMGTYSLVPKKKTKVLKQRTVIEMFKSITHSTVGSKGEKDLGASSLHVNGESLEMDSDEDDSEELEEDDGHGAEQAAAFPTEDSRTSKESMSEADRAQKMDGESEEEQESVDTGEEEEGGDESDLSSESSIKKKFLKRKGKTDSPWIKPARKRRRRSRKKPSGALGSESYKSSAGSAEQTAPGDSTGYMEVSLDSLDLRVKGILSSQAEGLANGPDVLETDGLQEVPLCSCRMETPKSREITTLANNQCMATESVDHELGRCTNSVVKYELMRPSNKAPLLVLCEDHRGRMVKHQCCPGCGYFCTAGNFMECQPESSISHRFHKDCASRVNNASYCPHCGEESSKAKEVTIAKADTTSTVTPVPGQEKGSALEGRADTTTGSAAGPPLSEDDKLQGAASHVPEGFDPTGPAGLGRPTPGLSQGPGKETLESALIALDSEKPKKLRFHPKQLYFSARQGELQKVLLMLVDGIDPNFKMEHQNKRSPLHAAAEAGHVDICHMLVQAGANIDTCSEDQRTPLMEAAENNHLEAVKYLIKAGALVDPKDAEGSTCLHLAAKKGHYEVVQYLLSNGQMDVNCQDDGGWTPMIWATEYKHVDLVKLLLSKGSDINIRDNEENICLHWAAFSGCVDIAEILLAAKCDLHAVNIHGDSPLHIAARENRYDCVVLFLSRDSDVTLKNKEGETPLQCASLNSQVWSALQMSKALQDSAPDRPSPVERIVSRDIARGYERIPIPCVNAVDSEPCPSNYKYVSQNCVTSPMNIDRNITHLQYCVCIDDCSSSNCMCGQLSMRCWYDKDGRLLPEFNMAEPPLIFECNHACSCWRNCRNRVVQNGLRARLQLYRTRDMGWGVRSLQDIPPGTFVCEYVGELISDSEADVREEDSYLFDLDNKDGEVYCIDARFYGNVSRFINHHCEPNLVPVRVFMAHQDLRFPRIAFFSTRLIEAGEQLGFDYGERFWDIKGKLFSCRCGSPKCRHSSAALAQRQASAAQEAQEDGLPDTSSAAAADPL

| SMILES | IC50 (human EHMT2 913-1193) [µM] | IC50 (EHMT1) [µM] |
| --- | --- | --- |
| CNc1cc(C)nc(Nc2cc(F)c(OC)c(OCCCN3CCCC3)c2)n1 [Compound 301, N2-(3-fluoro-4-methoxy-5-(3-(pyrrolidin-1-yl)propoxy)phenyl)-N4,6-dimethylpyrimidine-2,4-diamine] | > 10 | > 10 |
| CNc1cc(C)nc(Nc2ccc(OC)c(OCCOC)c2)n1 [Compound 311, N^2-(4-methoxy-3-(2-methoxyethoxy)phenyl)-N^4,6-dimethylpyrimidine-2,4-diamine] | > 10 | > 10 |
| CNc1cc(C)nc(Nc2ccc(OC)c(OCCCOC)c2)n1 [Compound 312, N^2-(4-methoxy-3-(3-methoxypropoxy)phenyl)-N^4,6-dimethylpyrimidine-2,4-diamine] | > 10 | > 10 |
| CNc1cc(C)nc(Nc2ccc(OC)c(OC[C@H]3C[C@@H](N(C)C)C3)c2)n1 [Compound 316] | 1 to 10 | 0.1 to 1 |
| CNc1cc(C)nc(Nc2ccc(OC)c(O[C@H]3C[C@@H](CN(C)C)C3)c2)n1 [Compound 318, N^2-(3-((1s,3s)-3-((dimethylamino)methyl)cyclobutoxy)-4-methoxyphenyl)-N^4,6-dimethylpyrimidine-2,4-diamine] | > 10 | > 10 |
| COc1cnc(Nc2cnc3ccccn23)cc1OCCCN1CCCC1 [Compound 321, N-(5-methoxy-4-(3-(pyrrolidin-1-yl)propoxy)pyridin-2-yl)imidazo[1,2-a]pyridin-3-amine] | 1 to 10 | 1 to 10 |
| CNc1ccnc(Nc2ccc(OC)c(OCCCN(C)CC3CC3)c2)n1 [Compound 424, N^2-(3-(3-((cyclopropylmethyl)(methyl)amino)propoxy)-4-methoxyphenyl)-N^4-methylpyrimidine-2,4-diamine] | 1 to 10 | 1 to 10 |
| CNc1ccnc(Nc2ccc(OC)c(OCc3cc(C4CC4)on3)c2)n1 [Compound 426, N^2-(3-((5-cyclopropylisoxazol-3-yl)methoxy)-4-methoxyphenyl)-N^4-methylpyrimidine-2,4-diamine] | > 10 | > 10 |
| CNc1ccnc(N[C@@H]2CCC[C@H](OCCCN3CCCC3)C2)n1 [Compound 427] | > 10 | > 10 |
| CNc1cc(CC(F)(F)F)nc(Nc2ccc(OC)c(OCCCN3CCCC3)c2)n1 [Compound 428, N^2-(4-methoxy-3-(3-(pyrrolidin-1-yl)propoxy)phenyl)-N^4-methyl-6-(2,2,2-trifluoroethyl)pyrimidine-2,4-diamine] | 1 to 10 | 1 to 10 |
| CCOc1ccc(Nc2nccc(NC)n2)cc1OCCCN1CCCC1 [Compound 430, N^2-(4-ethoxy-3-(3-(pyrrolidin-1-yl)propoxy)phenyl)-N^4-methylpyrimidine-2,4-diamine] | > 10 | > 10 |
| CCOc1ccc(Nc2nccc(NC)n2)cc1OCC1CCN(C)C1 (stereo not shown) [Compound 431] | > 10 | > 10 |
| CCOc1ccc(Nc2nc(C)cc(NC)n2)cc1OCCCN1CCCC1 [Compound 432, N^2-(4-ethoxy-3-(3-(pyrrolidin-1-yl)propoxy)phenyl)-N^4,6-dimethylpyrimidine-2,4-diamine] | > 10 | > 10 |

The remaining lines, values ahead:

| IC50 (human EHMT2 913-1193) [µM] | IC50 (EHMT1) [µM] | SMILES |
| --- | --- | --- |
| 1 to 10 | 1 to 10 | CNc1cc(C)nc(Nc2cc(OCCCN3CCCC3)c(OC)cc2F)n1 [Compound 302, N^2-(2-fluoro-4-methoxy-5-(3-(pyrrolidin-1-yl)propoxy)phenyl)-N^4,6-dimethylpyrimidine-2,4-diamine] |
| < 0.1 | 0.1 to 1 | CNc1cc(C)nc(Nc2cc(OCCCN3CCCC3)c(OC)cn2)n1 [Compound 303, N^2-(5-methoxy-4-(3-(pyrrolidin-1-yl)propoxy)pyridin-2-yl)-N^4,6-dimethylpyrimidine-2,4-diamine] |
| < 0.1 | < 0.1 | COc1cnc(Nc2nccc3[nH]ccc23)cc1OCCCN1CCCC1 [Compound 304] |
| < 0.1 | < 0.1 | CNc1ccnc(Nc2cc(OCCCN3CCCC3)c(OC)cn2)c1 [Compound 305, N^2-(5-methoxy-4-(3-(pyrrolidin-1-yl)propoxy)pyridin-2-yl)-N^4-methylpyridine-2,4-diamine] |
| 1 to 10 | > 10 | CNc1nc(C)cc(Nc2cc(OCCCN3CCCC3)c(OC)cn2)n1 [Compound 306, N^4-(5-methoxy-4-(3-(pyrrolidin-1-yl)propoxy)pyridin-2-yl)-N^2,6-dimethylpyrimidine-2,4-diamine] |
| < 0.1 | < 0.1 | CNc1cc(C)nc(Nc2cc(OCCCN3CCCC3)c(OC)cn2)c1 [Compound 307, N^2-(5-methoxy-4-(3-(pyrrolidin-1-yl)propoxy)pyridin-2-yl)-N^4,6-dimethylpyridine-2,4-diamine] |
| 0.1 to 1 | 0.1 to 1 | CNc1cc(Nc2cc(OCCCN3CCCC3)c(OC)cn2)cc(C)n1 [Compound 308, N^4-(5-methoxy-4-(3-(pyrrolidin-1-yl)propoxy)pyridin-2-yl)-N^2,6-dimethylpyridine-2,4-diamine] |
| < 0.1 | < 0.1 | CNc1cc(Nc2cc(OCCCN3CCCC3)c(OC)cn2)nc(C)c1F [Compound 309, 5-fluoro-N^2-(5-methoxy-4-(3-(pyrrolidin-1-yl)propoxy)pyridin-2-yl)-N^4,6-dimethylpyridine-2,4-diamine] |
| 0.1 to 1 | 0.1 to 1 | COc1cnc(Nc2nc(C)cc3[nH]ccc23)cc1OCCCN1CCCC1 [Compound 310] |
| 0.1 to 1 | 0.1 to 1 | CNc1cc(C)nc(Nc2ccc(C3CC3)c(OCCCN3CCCC3)c2)n1 [Compound 313, N^2-(4-cyclopropyl-3-(3-(pyrrolidin-1-yl)propoxy)phenyl)-N^4,6-dimethylpyrimidine-2,4-diamine] |
| 0.1 to 1 | 0.1 to 1 | CNc1ccnc(Nc2ccc(C3CC3)c(OCCCN3CCCC3)c2)n1 [Compound 314, N^2-(4-cyclopropyl-3-(3-(pyrrolidin-1-yl)propoxy)phenyl)-N^4-methylpyrimidine-2,4-diamine] |
| 0.1 to 1 | 0.1 to 1 | CCc1nc(Nc2ccc(OC)c(OCCCN3CCCC3)c2)nc(NC)c1F [Compound 319, 6-ethyl-5-fluoro-N^2-(4-methoxy-3-(3-(pyrrolidin-1-yl)propoxy)phenyl)-N^4-methylpyrimidine-2,4-diamine] |
| < 0.1 | < 0.1 | CNc1cc(C2CC2)nc(Nc2ccc(OC)c(OCCCN3CCCC3)c2)n1 [Compound 320, 6-cyclopropyl-N^2-(4-methoxy-3-(3-(pyrrolidin-1-yl)propoxy)phenyl)-N^4-methylpyrimidine-2,4-diamine] |
| 0.1 to 1 | 0.1 to 1 | CNc1ccnc(Nc2ccc(OC)c(OCCCN3CC(C)C3)c2)n1 [Compound 423, N^2-(4-methoxy-3-(3-(3-methylazetidin-1-yl)propoxy)phenyl)-N^4-methylpyrimidine-2,4-diamine] |
| 0.1 to 1 | 0.1 to 1 | CNc1ccnc(Nc2ccc(OC)c(OCCCN3CC(OC)C3)c2)n1 [Compound 425, N^2-(4-methoxy-3-(3-(3-methoxyazetidin-1-yl)propoxy)phenyl)-N^4-methylpyrimidine-2,4-diamine] |
| 0.1 to 1 | 0.1 to 1 | CNc1ccnc(Nc2ccc(OC)c(OCCCN3CCC3C)c2)n1 (stereo not shown) [Compound 429, N^2-(4-methoxy-3-(3-(2-methylazetidin-1-yl)propoxy)phenyl)-N^4-methylpyrimidine-2,4-diamine] |

From patent publication US20210198277A1, “AMINE-SUBSTITUTED ARYL OR HETEROARYL COMPOUNDS” (Epizyme, Inc., priority 2016, published 2021)
